# Values quoted from earlier work in patent US20070270436A1, “NOVEL AMINO- AND IMINO-ALKYLPIPERAZINES” (Recordati Ireland Limited, priority 2006, published 2007).
# Columns and labels:
# aged rhesus monkeys = details: 1 mg/kg p.o.; cited from earlier work
# marmosets = details: 2 mg/kg i.m., visual spatial discrimination; cited from earlier work
# [1] = test system: release of glutamate and acetylcholine; details: dentate gyrus of the hippocampus; cited from earlier work
# [2] = test system: 5-HT1A agonist discriminative stimulus cue; details: 0.01-1 mg/kg i.m.; cited from earlier work
smiles,measurement,setting,value
C[C@H](CN(C(=O)c1ccc(C#N)cc1)c1ccccn1)N1CCN(c2cccc3c2OCCO3)CC1 [lecozotan],task performance efficiency,aged rhesus monkeys,significant improvement
same,learning deficits induced by MK-801 and by cholinergic lesions of the hippocampus,marmosets,reversed
same,potassium chloride-stimulated release of glutamate and acetylcholine,[1],significantly potentiated
same,blockade of the 5-HT1A agonist discriminative stimulus cue,[2],dose-related blockade
same,substitution for 8-OH-DPAT,[2],did not substitute
